Experimental findings from PubChem BioAssay AID463151 (The Scripps Research Institute Molecular Screening Center, 2010) are described below.

Activity calls are given as the source filed them. No rule for the calls is given here.

The experiment deals with Nuclear receptor ROR-gamma (Homo sapiens) (UniProt P51449). In words: RORG inhibitor potency, late-stage follow-up, selectivity assay for RORA inverse agonist project, cell-based, luminescence, dose response (AID 463151). Particulars: cell-based RORG luciferase reporter. Background: In a reporter assay the amount or activity of a reporter protein is the signal.
Chain of Nuclear receptor ROR-gamma (Homo sapiens) (P51449 whole entry, looked up): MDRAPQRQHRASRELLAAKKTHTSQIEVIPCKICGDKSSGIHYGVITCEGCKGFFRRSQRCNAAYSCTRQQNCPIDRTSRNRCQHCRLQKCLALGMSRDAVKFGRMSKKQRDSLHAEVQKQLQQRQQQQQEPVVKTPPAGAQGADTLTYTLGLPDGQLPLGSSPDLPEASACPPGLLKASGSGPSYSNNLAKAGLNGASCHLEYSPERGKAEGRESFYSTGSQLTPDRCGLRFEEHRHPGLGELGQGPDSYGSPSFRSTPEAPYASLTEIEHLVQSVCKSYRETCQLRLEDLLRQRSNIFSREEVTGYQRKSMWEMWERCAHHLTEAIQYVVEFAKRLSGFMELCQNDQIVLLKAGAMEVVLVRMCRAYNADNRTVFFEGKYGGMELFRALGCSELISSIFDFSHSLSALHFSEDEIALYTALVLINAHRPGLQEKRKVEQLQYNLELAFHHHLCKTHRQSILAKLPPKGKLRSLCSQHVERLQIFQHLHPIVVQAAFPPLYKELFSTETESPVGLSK

The term IC50 denotes the point on the concentration scale where inhibition reaches its midpoint. On to `O=S(=O)(Nc1ccc(C(O)(C(F)(F)F)C(F)(F)F)cc1)c1cccs1`, for which the IC50 was > 10 µM (inactive).
